Earlier results as cited in patent US20210319872A1, “DRUG AND DEVICE COMBINATION PRODUCTS WITH IMPROVED SAFETY AND EFFICACY PROFILES” (priority 2016, published 2021).
Where two headings read alike, the source gives them in different places. One block for each compound: values may come before it.

Structure (SMILES): COc1ccc(-n2nc(C(N)=O)c3c2C(=O)N(c2ccc(N4CCCCC4=O)cc2)CC3)cc1 [Apixaban (Eliquis)]
- Bleeding gums (in vivo): Gastrointestinal: Bleeding gums (Less than 0.1% to 1.4%)
- Bleeding, Major (in vivo): prophylaxis, 2.88% to 4.83%), Bleeding, Major (0.1% to 2.13%),
- Conjunctival hemorrhage (in vivo): Ophthalmic: Conjunctival hemorrhage (0.1% to less than 1%),
- Contusion (in vivo): Dermatologic: Contusion (1.4% to 2.2%)
- Hematochezia (in vivo): pulmonary embolism, 0.1% to less than 1%), Hematochezia (0.1%
- Hematoma (in vivo): Hematologic: Hematoma (DVT, 1.3% to 1.5%)
- Hemorrhage (in vivo): Hemorrhage (0.1% to 1.4%), Hemorrhage, Operative (DVT
- Hemorrhage of muscle (in vivo): Musculoskeletal: Hemorrhage of muscle (Less than 0.1% to less
- Hemorrhage, Operative (in vivo): prophylaxis, 0.1% to less than 1%)
- Hypersensitivity reaction (in vivo): < 1%)
- Intracranial hemorrhage (in vivo): fibrillation, 0.33% to 0.34%/year), Non-traumatic spinal subdural
- Intraocular hemorrhage (in vivo): Intraocular hemorrhage (Less than 0.1% to less than 1%), Retinal
- Liver function tests abnormal (in vivo): 0.1% to less than 1%), Serum bilirubin raised (DVT prophylaxis,
- Menorrhagia (in vivo): Reproductive: Menorrhagia (1.4%)
- Retinal hemorrhage (in vivo): hemorrhage (0.1% to less than 1%)
- Serum bilirubin raised (in vivo): 0.1% to less than 1%)

Structure (SMILES): Nc1nnc(-c2cccc(Cl)c2Cl)c(N)n1 [Lamictal XR]
- Anxiety (extended-release): 3%
- Asthenia (extended-release): 6%
- Blurred vision (extended-release): 3%
- Coordination problem (extended-release): 3%
- Depression (extended-release): 3%
- Diarrhea (extended-release): 5%
- Diplopia (extended-release): extended-release, 5%)
- Dizziness (extended-release): 14%
- Nausea (extended-release): 7%
- Somnolence (extended-release): 5%
- Tremor (extended-release): 6%
- Vertigo (extended-release): release, 3%)
- Vomiting (extended-release): 6%
- Anemia (immediate release): Hematologic: Anemia (immediate release, less than 0.1%),
- Eosinophilia (immediate release): < 0.1%
- Thrombocytopenia (immediate release): < 1%), Thrombocytopenia (immediate release, less than 0.1%)
- Anxiety (immediate-release): Psychiatric: Anxiety (immediate-release, 4%; extended-release,
- Depression (immediate-release): 4%
- Headache (immediate-release): Headache (immediate-release, 29%), Insomnia (immediate-release,
- Pain (immediate-release): Other: Pain (immediate-release, 5%)
- Vertigo (immediate-release): 2%
- Blurred vision (immediate-release, children): 4%
- Diplopia (immediate-release, children): 5%
- Angioedema (in vivo): < 0.1%
- Erythema multiforme (in vivo): Dermatologic: Erythema multiforme (less than 0.1%), Rash,
- Serious side effect, Hematologic (listed without frequency): Disseminated intravascular coagulation, Eosinophilia (immediate
- Serious side effect, Hepatic (listed without frequency): Hepatic: Liver failure
- Serious side effect, Immunologic (listed without frequency): Immunologic: Drug hypersensitivity syndrome
- Serious side effect, Neurologic (listed without frequency): Neurologic: Aseptic meningitis

Structure (SMILES): Cc1nc2n(c(=O)c1CCN1CCC(c3noc4cc(F)ccc34)CC1)CCCC2 [Risperidone (Risperdal)]
- Akathisia (in vivo): Neurologic: Akathisia (oral, up to 10%; IM, 4% to 11%), Dizziness
- Anxiety (in vivo): Psychiatric: Anxiety (oral, up to 16% IM, less than 4%)
- Constipation (in vivo): Gastrointestinal: Constipation (oral, 8% to 21%; IM, 5% to 7%),
- Diarrhea (in vivo): Diarrhea (oral, 1% to 8%; IM, less than 4%), Excessive salivation
- Dystonia (in vivo): < 5%; pediatric, 2% to 6%; IM, adult, less than 4%), Parkinsonism
- Excessive salivation (in vivo): (oral, 1% to 10%; IM, 1% to 4%), Increased appetite (oral, adult,
- Fatigue (in vivo): 3% to 9%), Pain, General (IM, 1% to 4%)
- Hyperprolactinemia (in vivo): < 1%; pediatrics, 49% to 87%; IM, less than 4%), Weight increased
- Increased appetite (in vivo): more than 5%; pediatric, 4% to 47%; IM, 4%), Indigestion (oral,
- Indigestion (in vivo): 2% to 10%; IM, 6%), Nausea (oral, 4% to 16%; IM, 3% to 4%),
- Nausea (in vivo): 2% to 10%; IM, 6%), Nausea (oral, 4% to 16%; IM, 3% to 4%),
- Pain, General (in vivo): 3% to 9%), Pain, General (IM, 1% to 4%)
- Parkinsonism (in vivo): (oral, 6% to 28%; IM, 8% to 15%), Sedated (oral, adult, 3% to 6%;
- Rash (in vivo): IM, less than 4%)
- Syncope (in vivo): Syncope (oral, up to 1%; IM, up to 2%)
- Tardive dyskinesia (in vivo): less than 5%; IM, less than 4%)
- Tremor (in vivo): pediatric, 8% to 29%), Tremor (oral, 2% to 12%; IM, 3% to 24%)
- Upper respiratory infection (in vivo): respiratory infection (oral, 2% to 8%; IM, 2% and 6%)
- Vomiting (in vivo): < 16%), Vomiting (oral, 10% to 25%; IM, less than 4%), Xerostomia
- Weight increased (in vivo): (oral, adult, 8.7% to 20.9%; pediatric, 14% to 32.6%; IM, adult, 8%
- Xerostomia (in vivo): (oral, 4% to 15%; IM, up to 7%)
- Akathisia (in vivo, po): Neurologic: Akathisia (oral, up to 10%; IM, 4% to 11%), Dizziness
- Anxiety (in vivo, po): Psychiatric: Anxiety (oral, up to 16% IM, less than 4%)
- Cerebrovascular accident (in vivo, po): Neurologic: Cerebrovascular accident (oral, less than 5%; IM, less
- Constipation (in vivo, po): Gastrointestinal: Constipation (oral, 8% to 21%; IM, 5% to 7%),
- Diarrhea (in vivo, po): Diarrhea (oral, 1% to 8%; IM, less than 4%), Excessive salivation
- Excessive salivation (in vivo, po): (oral, 1% to 10%; IM, 1% to 4%), Increased appetite (oral, adult,
- Fatigue (in vivo, po): Other: Fatigue (oral, adult, 1% to 3%; pediatric, 18% to 42%; IM,
- Hyperprolactinemia (in vivo, po): < 1%; pediatrics, 49% to 87%; IM, less than 4%), Weight increased
- Increased appetite (in vivo, po): more than 5%; pediatric, 4% to 47%; IM, 4%), Indigestion (oral,
- Indigestion (in vivo, po): 2% to 10%; IM, 6%), Nausea (oral, 4% to 16%; IM, 3% to 4%),
- Nasal congestion (in vivo, po): 4%), Nasal congestion (oral, adult, 4% to 6%; pediatric, 13%),
- Nausea (in vivo, po): 2% to 10%; IM, 6%), Nausea (oral, 4% to 16%; IM, 3% to 4%),
- Pain in throat (in vivo, po): throat (oral, adult, more than 5%; pediatric, 3% to 10%), Upper
- Parkinsonism (in vivo, po): (oral, 6% to 28%; IM, 8% to 15%), Sedated (oral, adult, 3% to 6%;
- Rash (in vivo, po): Dermatologic: Rash (oral, adults, 1% to 4%; pediatrics, up to 11%;
- Syncope (in vivo, po): Syncope (oral, up to 1%; IM, up to 2%)
- Tardive dyskinesia (in vivo, po): less than 5%; IM, less than 4%)
- Tremor (in vivo, po): pediatric, 8% to 29%), Tremor (oral, 2% to 12%; IM, 3% to 24%)
- Upper respiratory infection (in vivo, po): respiratory infection (oral, 2% to 8%; IM, 2% and 6%)
- Vomiting (in vivo, po): 16%), Vomiting (oral, 10% to 25%; IM, less than 4%), Xerostomia
- Weight increased (in vivo, po): (oral, adult, 8.7% to 20.9%; pediatric, 14% to 32.6%; IM, adult, 8%
- Xerostomia (in vivo, po): (oral, 4% to 15%; IM, up to 7%)

Structure (SMILES): COC(=O)C1=C(C)NC(C)=C(C(=O)OC)C1c1ccccc1[N+](=O)[O-] [Nifedipine (Adalat, Procardia)]
- Dizziness (in vivo): Neurologic: Dizziness (4% to 10%), Headache (19% to 23%)
- Flushing (in vivo): Dermatologic: Flushing (4% to 25%)
- Headache (in vivo): Neurologic: Dizziness (4% to 10%), Headache (19% to 23%)
- Hypotension (in vivo): Cardiovascular: Hypotension (up to 5%), Palpitations (up to 7%),
- Myocardial infarction (in vivo): Cardiovascular: Myocardial infarction (up to 4%), Ventricular
- Nausea (in vivo): Gastrointestinal: Nausea (up to 10%)
- Palpitations (in vivo): Cardiovascular: Hypotension (up to 5%), Palpitations (up to 7%),
- Peripheral edema (in vivo): Peripheral edema (7% to 29%)
- Ventricular arrhythmia (in vivo): arrhythmia (less than 0.5%)

Structure (SMILES): CCC[C@H](N[C@@H](C)C(=O)N1[C@H](C(=O)O)C[C@@H]2CCCC[C@@H]21)C(=O)OCC [Perindopril (Aceon)]
- Angioedema (in vivo): Other: Angioedema (0.1% to 0.5%)
- Backache (in vivo): Musculoskeletal: Backache (5.8%)
- Cough (in vivo): Respiratory: Cough (12%)
- Dizziness (in vivo): Neurologic: Asthenia, Dizziness (8.2%), Headache
- Orthostatic hypotension (in vivo): Cardiovascular: Cardiac arrest, Orthostatic hypotension (0.8%)

Structure (SMILES): COc1ccc([C@@H]2Sc3ccccc3N(CCN(C)C)C(=O)[C@@H]2OC(C)=O)cc1 [Diltiazem (Cardizem, Tiazac)]
- Bradyarrhythmia (in vivo): Cardiovascular: Bradyarrhythmia (1.7% to 3.6%), Peripheral
- Congestive heart failure (in vivo): Cardiovascular: Congestive heart failure (less than 2%), Heart
- Cough (in vivo): Respiratory: Cough (2%)
- Dizziness (in vivo): Neurologic: Dizziness (3.5% to 6.4%), Headache (4.6%)
- Fatigue (in vivo): Other: Fatigue (4.8%)
- Headache (in vivo): Neurologic: Dizziness (3.5% to 6.4%), Headache (4.6%)
- Peripheral edema (in vivo): edema (4.6% to 8%)

- Abdominal pain (hepatocellular carcinoma): 31%
- Alopecia (hepatocellular carcinoma): 14%
- Hypoalbuminemia (hepatocellular carcinoma): 59%
- Hypocalcemia (hepatocellular carcinoma): 27%
- Thrombocytopenia (hepatocellular carcinoma): 46%
- Hepatitis (in vivo): < 0.1%
- Hypertension, Grade 3 or 4 (in vivo): 4.3%
- Pain (in vivo): ≥ 10%
- Rash (in vivo): ≤ 35%
- Acral erythema (renal cell carcinoma): 30%
- Alopecia (renal cell carcinoma): 27%
- Hypocalcemia (renal cell carcinoma): 12%
- Thrombocytopenia (renal cell carcinoma): 12%
- Weight decreased (renal cell carcinoma): 10%
- Abdominal pain (thyroid carcinoma): 20%
- Acral erythema (thyroid carcinoma): 69%
- Alopecia (thyroid carcinoma): 67%
- Decrease in appetite (thyroid carcinoma): 30%
- Hemorrhage (thyroid carcinoma): carcinoma, 17.4%)
- Hypocalcemia (thyroid carcinoma): 36%
- Raised TSH level (thyroid carcinoma): 41%
- Squamous cell carcinoma of skin (thyroid carcinoma): 3%
- Weight decreased (thyroid carcinoma): 49%
Structure (SMILES): CNC(=O)c1cc(Oc2ccc(NC(=O)Nc3ccc(Cl)c(C(F)(F)F)c3)cc2)ccn1 [Nexavar]
- Acral erythema (hepatocellular carcinoma): Dermatologic: Acral erythema (hepatocellular carcinoma, 21%;
- Lymphocytopenia (hepatocellular carcinoma): hepatocellular carcinoma, 47%), Thrombocytopenia (renal cell
- Weight decreased (hepatocellular carcinoma): decreased (hepatocellular carcinoma, 30%; renal cell carcinoma,
- Congestive heart failure (in vivo): Cardiovascular: Congestive heart failure (1.9%), Hypertension,
- Hypertension, All grades (in vivo): Cardiovascular: Hypertension, All grades (19.1%)
- Infectious disease (in vivo): Immunologic: Infectious disease (10% or greater)
- Prolonged QT interval (in vivo): (Less than 0.1%)
- Common side effect, Dermatologic (listed without frequency): Peeling of skin
- Serious side effect, Dermatologic (listed without frequency): Stevens-Johnson syndrome
- Serious side effect, Gastrointestinal (listed without frequency): Gastrointestinal: Gastrointestinal hemorrhage, Gastrointestinal
- Serious side effect, Respiratory (listed without frequency): Respiratory tract hemorrhage
- Abdominal pain (renal cell carcinoma): Gastrointestinal: Abdominal pain (renal cell carcinoma, 11%;
- Hemorrhage (renal cell carcinoma): Hematologic: Hemorrhage (renal cell carcinoma, 15.3%; thyroid
- Lymphocytopenia (renal cell carcinoma): Hematologic: Lymphocytopenia (renal cell carcinoma, 23%;
- ALT/SGPT level raised, Grade 3 or higher (thyroid carcinoma): carcinoma, 4%), AST/SGOT level raised, Grade 3 or 4 (thyroid
- ALT/SGPT level raised, all grades (thyroid carcinoma): 59%), AST/SGOT level raised, All grades (thyroid carcinoma,
- AST/SGOT level raised, All grades (thyroid carcinoma): 54%)
- AST/SGOT level raised, Grade 3 or 4 (thyroid carcinoma): 2%
